The text below walks through data of US8026282B2, “Phenoxyalkylcarboxylic acid derivatives in the treatment of irritable bowel syndrome” (Medicinova, Inc., priority 2004, dated 2011).

One test concerns the target PDE5 (Homo sapiens, UniProt O76074). The test can be described thus: Biochemical assay PDE5. As to conditions: PDE5, Hu.
In another test the target is LTB4 (Homo sapiens, UniProt Q15722). The test is described as follows: Biochemical assay LTB4. The class given is binding. The settings on record: LTB4, Hu.
LTB4, sequence (Q15722 whole entry): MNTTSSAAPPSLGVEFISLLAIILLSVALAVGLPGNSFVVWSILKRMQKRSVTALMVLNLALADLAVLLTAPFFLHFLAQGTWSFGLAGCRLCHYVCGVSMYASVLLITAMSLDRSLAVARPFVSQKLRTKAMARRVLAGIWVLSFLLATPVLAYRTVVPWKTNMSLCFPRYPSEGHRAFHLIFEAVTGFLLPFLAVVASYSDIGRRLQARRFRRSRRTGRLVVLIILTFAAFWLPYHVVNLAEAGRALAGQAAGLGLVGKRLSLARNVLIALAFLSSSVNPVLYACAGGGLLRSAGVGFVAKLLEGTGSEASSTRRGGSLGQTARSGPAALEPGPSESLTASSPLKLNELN
Another test addresses T1, PDE6 (Bos taurus, UniProt P11541+P23439).
T1 sequence (P11541 1-859): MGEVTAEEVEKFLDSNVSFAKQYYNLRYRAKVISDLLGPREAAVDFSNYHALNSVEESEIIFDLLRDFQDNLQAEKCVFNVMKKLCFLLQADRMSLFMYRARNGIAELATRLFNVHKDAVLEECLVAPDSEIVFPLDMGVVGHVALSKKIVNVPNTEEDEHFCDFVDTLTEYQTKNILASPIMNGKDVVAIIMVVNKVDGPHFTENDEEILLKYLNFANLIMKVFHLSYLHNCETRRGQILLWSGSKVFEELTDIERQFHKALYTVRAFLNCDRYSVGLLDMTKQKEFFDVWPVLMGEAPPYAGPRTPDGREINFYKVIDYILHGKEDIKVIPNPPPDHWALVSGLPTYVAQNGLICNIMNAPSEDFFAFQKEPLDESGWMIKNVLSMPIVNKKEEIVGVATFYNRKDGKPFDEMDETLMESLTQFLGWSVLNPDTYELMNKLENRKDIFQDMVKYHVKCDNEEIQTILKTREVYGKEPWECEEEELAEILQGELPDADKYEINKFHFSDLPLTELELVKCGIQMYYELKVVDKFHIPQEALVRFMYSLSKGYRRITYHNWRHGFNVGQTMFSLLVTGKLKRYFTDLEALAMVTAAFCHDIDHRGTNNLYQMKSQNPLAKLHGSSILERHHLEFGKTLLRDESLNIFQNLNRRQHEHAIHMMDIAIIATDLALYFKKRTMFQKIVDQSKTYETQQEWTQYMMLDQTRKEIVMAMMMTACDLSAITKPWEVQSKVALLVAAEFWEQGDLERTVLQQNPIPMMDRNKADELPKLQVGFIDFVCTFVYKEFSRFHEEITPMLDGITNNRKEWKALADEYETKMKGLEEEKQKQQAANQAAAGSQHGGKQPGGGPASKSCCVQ
T1 sequence (P23439 1-853): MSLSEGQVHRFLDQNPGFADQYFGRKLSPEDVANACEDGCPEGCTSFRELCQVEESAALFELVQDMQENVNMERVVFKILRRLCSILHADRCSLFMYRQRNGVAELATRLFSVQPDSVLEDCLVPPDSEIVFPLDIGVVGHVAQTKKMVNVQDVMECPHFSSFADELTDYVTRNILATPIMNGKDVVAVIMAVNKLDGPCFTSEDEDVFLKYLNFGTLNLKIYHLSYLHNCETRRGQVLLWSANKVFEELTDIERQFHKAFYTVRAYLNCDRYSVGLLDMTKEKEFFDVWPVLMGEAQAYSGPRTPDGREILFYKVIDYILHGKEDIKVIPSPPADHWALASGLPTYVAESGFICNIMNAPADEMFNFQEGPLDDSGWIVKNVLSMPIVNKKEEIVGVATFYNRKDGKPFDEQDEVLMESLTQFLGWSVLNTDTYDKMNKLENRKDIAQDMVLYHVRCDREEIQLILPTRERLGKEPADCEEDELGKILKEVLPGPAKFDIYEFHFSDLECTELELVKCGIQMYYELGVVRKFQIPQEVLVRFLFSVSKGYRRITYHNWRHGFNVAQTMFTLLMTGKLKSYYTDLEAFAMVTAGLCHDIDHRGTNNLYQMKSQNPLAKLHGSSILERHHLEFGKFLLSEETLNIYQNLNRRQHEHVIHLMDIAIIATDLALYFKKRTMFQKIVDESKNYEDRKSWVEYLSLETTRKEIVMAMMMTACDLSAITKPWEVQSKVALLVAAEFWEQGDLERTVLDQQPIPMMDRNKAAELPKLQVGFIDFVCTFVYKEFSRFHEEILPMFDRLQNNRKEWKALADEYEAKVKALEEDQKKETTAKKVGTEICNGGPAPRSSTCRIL
The test is described as follows: Biochemical assay PDE6. As to conditions: PDE6, Bov.

The next test has as its system IBS/ulcerative colitis. The test can be described thus: Example 9: patient with IBS/ulcerative colitis symptoms. The class given is in vivo, human. As to conditions: 750 mg tablets three times per day for at least two months; present-tense example. The protocol:
A person complains of symptoms associated with IBS/ulcerative colitis, including diarrhea with discharge of mucus and blood, cramping abdominal pain, and inflammation and edema of the mucous membrane with patches of ulceration. The patient is treated with tablets containing 750 mg of compound (1), three times per day, for at least two months. […] Similar positive results are observed for other patients complaining of the same or similar symptoms attributable to IBS or ulcerative colitis.

Another test deals with PLA2-I (Sus scrofa, UniProt P00592). The test can be described thus: Biochemical assay PLA2-I. The settings on record: Pig.
PLA2-I, sequence (P00592 23-146): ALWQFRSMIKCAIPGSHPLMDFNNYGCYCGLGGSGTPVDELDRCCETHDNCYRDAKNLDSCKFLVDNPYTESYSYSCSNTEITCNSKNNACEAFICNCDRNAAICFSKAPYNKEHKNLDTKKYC

The IC50 is the concentration needed to halve the response being measured. One may read the Ki as the dissociation constant of the complex between target and ligand, obtained from inhibition or displacement.

Turning to `CCCc1c(SCCCOc2ccc(C(C)=O)c(OCCCC(=O)O)c2CCC)ccc(C(C)=O)c1O` [Compound 1, 4-[6-acetyl-3-[3-(4-acetyl-3-hydroxy-2-propylphenylthio)propoxy]-2-propylphenoxy]butyric acid], the concentration for half-maximal inhibition (IC50) at PDE5 was 12.7 µM; at LTB4 it was 9.02 µM; at PDE6 it was 2.05 µM; against PLA2-I it was 142 µM. Also, the inhibition constant (Ki) on LTB4 (value in parentheses) stood at 2.29 µM. Also, the “symptoms of IBS/ulcerative colitis reported by patient” value in the test on IBS/ulcerative colitis is “positive effects”.
Regarding `CCCc1c(SCCCOc2ccc(C(C)O)c(OCCCC(=O)O)c2CCC)ccc(C(C)=O)c1O` (stereo not drawn) [Compound 2], the IC50 on PDE5 came to 8.47 µM; at PDE6, 1.73 µM; against PLA2-I, 248 µM.
